Results as given in PubChem BioAssay AID2060618 (Molecular Pharmacology Branch, DTP, NCI, 2025).

System: 454973-116-R2-J3-PDC spheroids, percent test/control viability
Assay: Anticancer human tumor 454973-116-R2-J3-PDC patient-derived pancreatic carcinoma cell line growth inhibition [CLK]
Settings: spheroids with HUVEC and MSC; for IC50: curve of first compound; for viability, T/C: stronger effect = lower value
Excerpt: A high-throughput screen of multi-cell type tumor spheroids was designed to identify active combinations of […] and targeted small molecules. Complex spheroids include a stromal component modeled by human endothelial cells (HUVEC) and fibroblasts modeled by human mesenchymal stem cells (MSCs). The concentration ranges selected for each drug and investigational agent were based upon clinically achievable concentrations if the clinical Cmax of the agent was known.
Compounds. The drugs and investigational agents: cirtuvivint (SM08502; NSC835563), CC-671 (NSC850746), vemurafenib (NSC761431), tapotoclax (NSC804041), sotorasib (NSC818433), adagrasib (NSC831453), MRTX-1133 (NSC836407), BAY2416964 (NSC825713), copanlisib (NSC816437), inavolisib (NSC800729), abemaciclib (NSC768073), osimertinib (NSC779217), entinostat (NSC756642), eltanexor (KPT-8602, NSC794443), venetoclax (NSC766270), ceralasertib (NSC777638), bortezomib (NSC756655), olaparib (NSC753686), talazoparib (NSC767125), alisertib (NSC759677), peposertib (NSC802822), gemcitabine (NSC613327), 5-fluorouracil (NSC19893), SN-38 (NSC673596), oxaliplatin (NSC266046), paclitaxel (NSC125973), and doxorubicin (NSC123127), were obtained from the National Cancer Institute (NCI) Developmental Therapeutics Program Chemical Repository. The FDA-approved anticancer drug set is available from the Developmental Therapeutics Program at https://dtp.cancer.gov/organization/dscb/obtaining/available plates.htm. […] The stock solutions were prepared in dimethyl sulfoxide (DMSO, Sigma-Aldrich, St. Louis, MO, cat. D2650), except for the platinum complexes which were prepared in saline (Quality Biological, Gaithersburg, MD, cat. 114-055-101), at 800-fold the tested concentration and stored at -70 degrees C prior to their use. All drugs and investigational agents were tested over a range starting from a high concentration at or near the clinical Cmax and decreasing in half-log increments. If the clinical Cmax for an agent had not been determined, the highest concentration tested was 10 microM.
Cell Culture. All cells were maintained in an incubator at 37 degrees C and 5% CO2 with 95% humidity. The PDC lines were cultured according to standard operating procedures established by the NCI PDMR. Briefly, all PDCs were thawed and cultured in Matrigel-coated flasks prepared with a working solution of 1X Ham's F-12 nutrient mix, without supplementation (Invitrogen, Waltham, MA, cat. 11765054), 100 U/mL penicillin-streptomycin (Invitrogen, cat. 15140122), and 2.5% Matrigel (Corning Inc., Corning, NY, cat. 354248) for the first three passages. The 947758-054-R-J2-PDC line was cultured in 6B/Colon 1A media, which includes advanced DMEM/F-12 (Thermo Fisher Scientific, cat. 12634028), 10 mM HEPES (Thermo Fisher Scientific, cat. 15630080), 1X GlutaMAX supplement (Thermo Fisher Scientific, cat. 35050061), 0.1 mg/mL primocin (InvivoGen, cat. ant-pm-2), 10% defined fetal bovine serum, heat inactivated (HyClone Laboratories Inc., cat. SH30070.03HI), 1.25 mM N-Acetyl-L-cysteine (Sigma-Aldrich, cat. A9165), 10 mM nicotinamide (Sigma-Aldrich, cat. N0636), 1X B-27 supplement (Thermo Fisher Scientific, cat. 17504044), 1X N-2 supplement (Thermo Fisher Scientific, cat. 17502048), and 10 microM Y-27632 dihydrochloride (Tocris Bioscience, cat. 1254). The 876862-298-R-J1-PDC was cultured in 6E media, which includes all 6B/Colon 1A media components plus 50% L-WRN conditioned media (ATCC, cat. CRL-3276), 50 ng/mL recombinant human EGF recombinant protein (hEGF; Thermo Fisher Scientific, cat. PHG0311), 10 ng/mL recombinant human fibroblast growth factor 10 (hGFG-10; PeproTech, cat. 100-26), 1 ng/mL recombinant human fibroblast growth factor 2 (hFGF-2; PeproTech, cat. 100-18B), and 1 µM prostaglandin E2 (PGE2; Tocris, cat. 2296). The 227483-062-R1-J1-PDC line was cultured in Panc media, containing all 6E components except hFGF-2, with the addition of 500 nM SB-431542 (Selleckchem, cat. S1067) and 10 nM gastrin (Tocris, cat. 3006). […]

[1] = second compound 0.0316 µM, first compound 0.0316 µM
[2] = second compound 0.0316 µM, first compound 0.1 µM
[3] = second compound 0.0316 µM, first compound 0.316 µM
[4] = second compound 0.0316 µM, first compound 1 µM
[5] = second compound 0.0316 µM, first compound 3.16 µM
[6] = second compound 0.0316 µM, first compound 10 µM
[7] = second compound 0.1 µM, first compound 0.0316 µM
[8] = second compound 0.1 µM, first compound 0.1 µM
[9] = second compound 0.1 µM, first compound 0.316 µM
[10] = second compound 0.1 µM, first compound 1 µM
[11] = second compound 0.1 µM, first compound 3.16 µM
[12] = second compound 0.1 µM, first compound 10 µM
[13] = second compound 0.316 µM, first compound 0.0316 µM
[14] = second compound 0.316 µM, first compound 0.1 µM
[15] = second compound 0.316 µM, first compound 0.316 µM
[16] = second compound 0.316 µM, first compound 1 µM
[17] = second compound 0.316 µM, first compound 3.16 µM
[18] = second compound 0.316 µM, first compound 10 µM
[19] = second compound 1 µM, first compound 0.0316 µM
[20] = second compound 1 µM, first compound 0.1 µM
[21] = second compound 1 µM, first compound 0.316 µM
[22] = second compound 1 µM, first compound 1 µM
[23] = second compound 1 µM, first compound 3.16 µM
[24] = second compound 1 µM, first compound 10 µM
[25] = second compound 3.16 µM, first compound 0.0316 µM
[26] = second compound 3.16 µM, first compound 0.1 µM
[27] = second compound 3.16 µM, first compound 0.316 µM
[28] = second compound 3.16 µM, first compound 1 µM
[29] = second compound 3.16 µM, first compound 3.16 µM
[30] = second compound 3.16 µM, first compound 10 µM
[31] = second compound 10 µM, first compound 0.0316 µM
[32] = second compound 10 µM, first compound 0.1 µM
[33] = second compound 10 µM, first compound 0.316 µM
[34] = second compound 10 µM, first compound 1 µM
[35] = second compound 10 µM, first compound 3.16 µM
[36] = second compound 10 µM, first compound 10 µM
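Also: spheroids exposed to compounds for 7 days before readout.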

## Nc1ccn(C2OC(CO)C(O)C2(F)F)c(=O)n1 (centres undefined) + CN1CCN(c2cc(C(=O)Nc3cc4cc(-c5cnn(C)c5)ccc4cn3)ccn2)CC1
Second compound 0.0316 µM
  IC50: < 0.0316 µM
Second compound 0.1 µM
  IC50: < 0.0316 µM
Second compound 0.316 µM
  IC50: < 0.0316 µM
Second compound 1 µM
  IC50: < 0.0316 µM
Second compound 3.16 µM
  IC50: < 0.0316 µM
Second compound 10 µM
  IC50: < 0.0316 µM
[1]
  viability, T/C: 10.3%
[2]
  viability, T/C: 9.2%
[3]
  viability, T/C: 11.2%
[4]
  viability, T/C: 10.4%
[5]
  viability, T/C: 11%
[6]
  viability, T/C: 12.3%
[7]
  viability, T/C: 10.3%
[8]
  viability, T/C: 10.5%
[9]
  viability, T/C: 8.35%
[10]
  viability, T/C: 11.8%
[11]
  viability, T/C: 12.8%
[12]
  viability, T/C: 10.7%
[13]
  viability, T/C: 1.34%
[14]
  viability, T/C: 3.55%
[15]
  viability, T/C: 1.4%
[16]
  viability, T/C: 1.47%
[17]
  viability, T/C: 1.66%
[18]
  viability, T/C: 1.1%
[19]
  viability, T/C: 1.36%
[20]
  viability, T/C: 0.1%
[21]
  viability, T/C: 0.67%
[22]
  viability, T/C: 0.06%
[23]
  viability, T/C: 0.07%
[24]
  viability, T/C: 1.87%
[25]
  viability, T/C: 0.13%
[26]
  viability, T/C: 0.16%
[27]
  viability, T/C: 0.18%
[28]
  viability, T/C: 0.15%
[29]
  viability, T/C: 0.15%
[30]
  viability, T/C: 0.15%
[31]
  viability, T/C: 0.16%
[32]
  viability, T/C: 0.66%
[33]
  viability, T/C: 0.22%
[34]
  viability, T/C: 1.09%
[35]
  viability, T/C: 0.2%
[36]
  viability, T/C: 1.04%

## CC1COCCN1c1cc(C2(S(C)(=N)=O)CC2)nc(-c2ccnc3[nH]ccc23)n1 (centres undefined) + CN1CCN(c2cc(C(=O)Nc3cc4cc(-c5cnn(C)c5)ccc4cn3)ccn2)CC1
Second compound 0.0316 µM
  IC50: 7.24 µM
Second compound 0.1 µM
  IC50: 4.52 µM
Second compound 0.316 µM
  IC50: < 0.0316 µM
Second compound 1 µM
  IC50: < 0.0316 µM
Second compound 3.16 µM
  IC50: < 0.0316 µM
Second compound 10 µM
  IC50: < 0.0316 µM
[1]
  viability, T/C: 97.4%
[2]
  viability, T/C: 105%
[3]
  viability, T/C: 96.2%
[4]
  viability, T/C: 106%
[5]
  viability, T/C: 83.3%
[6]
  viability, T/C: 37.1%
[7]
  viability, T/C: 73.4%
[8]
  viability, T/C: 80.5%
[9]
  viability, T/C: 91.4%
[10]
  viability, T/C: 77.5%
[11]
  viability, T/C: 62.9%
[12]
  viability, T/C: 21.5%
[13]
  viability, T/C: 1.53%
[14]
  viability, T/C: 2.23%
[15]
  viability, T/C: 1.84%
[16]
  viability, T/C: 1.74%
[17]
  viability, T/C: 1.04%
[18]
  viability, T/C: 0.46%
[19]
  viability, T/C: 0.13%
[20]
  viability, T/C: 0.13%
[21]
  viability, T/C: 0.16%
[22]
  viability, T/C: 0.1%
[23]
  viability, T/C: 0.11%
[24]
  viability, T/C: 0.1%
[25]
  viability, T/C: 0.17%
[26]
  viability, T/C: 0.21%
[27]
  viability, T/C: 0.22%
[28]
  viability, T/C: 0.2%
[29]
  viability, T/C: 0.15%
[30]
  viability, T/C: 0.21%
[31]
  viability, T/C: 1.56%
[32]
  viability, T/C: 0.21%
[33]
  viability, T/C: 0.22%
[34]
  viability, T/C: 0.31%
[35]
  viability, T/C: 0.25%
[36]
  viability, T/C: 0.6%
